{"source": "patent US8153560B2", "about": "“Pesticidal active mixtures comprising aminothiazoline compounds” (BASF SE, priority 2007, dated 2012)", "key": {"[1]": {"test_system": "green peach aphid (Myzus persicae)", "assay": "Test B.2: control of green peach aphid through systemic means, artificial diet under membrane", "format": "in vivo", "from_the_text": "For evaluating control of green peach aphid (Myzus persicae) through systemic means the test unit consisted of 96-well-microtiter plates containing liquid artificial diet under an artificial membrane.\nThe compounds or mixtures were formulated using a solution containing 75 wt % water and 25 wt % DMSO. Different concentrations of formulated compounds or mixtures were pipetted into the aphid diet, using a custom built pipetter, at two replications.\n(§1) For experimental mixtures in these tests identical volumes of both mixing partners at the desired concentrations respectively, were mixed together.\nAfter application, 5-8 adult aphids were placed on the artificial membrane inside the microtiter plate wells. The aphids were then allowed to suck on the treated aphid diet and incubated at 23±1° C., 50±5% RH for 3 days. Aphid mortality and fecundity was then visually assessed."}, "[2]": {"test_system": "vetch aphid (Megoura viciae)", "assay": "Test B.1: control of vetch aphid on broad bean leaf disks, contact or systemic", "format": "in vivo", "method": "For evaluating control of vetch aphid (Megoura viciae) through contact or systemic means the test unit consisted of 24-well-microtiter plates containing broad bean leaf disks.\nThe compounds or mixtures were formulated using a solution containing 75 wt % water and 25 wt % DMSO. Different concentrations of formulated compounds or mixtures were sprayed onto the leaf disks at 2.5 μl, using a custom built micro atomizer, at two replications.\nas §1\nAfter application, the leaf disks were air-dried and 5-8 adult aphids placed on the leaf disks inside the microtiter plate wells. The aphids were then allowed to suck on the treated leaf disks and incubated at 23±1° C., 50±5% RH (relative humidity) for 5 days. Aphid mortality and fecundity was then visually assessed."}, "[3]": {"conditions": "mixing partner alone, ppm 0.4 + 0, 3 days"}, "[4]": {"conditions": "mixing partner alone, ppm 40 + 0, 3 days"}, "[5]": {"conditions": "mixing partner alone, ppm 0.08 + 0, 5 days"}, "[6]": {"conditions": "mixing partner alone, ppm 0.08 + 0, 3 days"}}, "data": [{"compound": "CC1(C)C(C=C(Cl)Cl)C1C(=O)OC(C#N)c1cccc(Oc2ccccc2)c1", "note": "(stereo not drawn) [Alphacypermethrin, alpha-cypermethrin]", "values": [{"measurement": "Average Control %", "setting": "[1]; mixing partner alone, ppm 10 + 0, 3 days", "value": 50, "unit": "%"}]}, {"compound": "Cc1cc(C)cc(CC(NC2=NCCS2)c2cccc(C)c2C)c1", "note": "(stereo not drawn) [C.33, (4,5-Dihydro-thiazol-2-yl)-[2-(3,5-dimethyl-phenyl)-1-(2,3-dimethyl-phenyl)-ethyl]-amine]", "values": [{"measurement": "Average Control %", "setting": "[2]; compound C.33 alone, ppm 0 + 0.8, 5 days", "value": 0, "unit": "%"}, {"measurement": "Average Control %", "setting": "[1]; compound C.33 alone, ppm 0 + 0.8, 3 days", "value": 0, "unit": "%"}, {"measurement": "Average Control %", "setting": "[1]; compound C.33 alone, ppm 0 + 4, 3 days", "value": 0, "unit": "%"}, {"measurement": "Average Control %", "setting": "[1]; compound C.33 alone, ppm 0 + 20, 3 days", "value": 0, "unit": "%"}, {"measurement": "Average Control %", "setting": "[1]; compound C.33 alone, ppm 0 + 20, 3 days, listed as test compound", "value": 50, "unit": "%"}]}, {"compound": "CNC(=O)c1cc(Cl)cc(C)c1NC(=O)c1cc(Br)nn1-c1ncccc1Cl", "note": "[Chlorantraniliprole, chlorantraniliprole]", "values": [{"measurement": "Average Control %", "setting": "[1]; [3]", "value": 50, "unit": "%"}]}, {"compound": "N#Cc1nn(-c2c(Cl)cc(C(F)(F)F)cc2Cl)c(N)c1[S+]([O-])C(F)(F)F", "note": "(stereo not drawn) [Fipronil, fipronil]", "values": [{"measurement": "Average Control %", "setting": "[2]; mixing partner alone, ppm 2 + 0, 5 days", "value": 25, "unit": "%"}, {"measurement": "Average Control %", "setting": "[1]; [3]", "value": 0, "unit": "%"}]}, {"compound": "CC1=NNC(=O)N(/N=C/c2cccnc2)C1", "note": "[Pymetrozine, pymetrozine]", "values": [{"measurement": "Average Control %", "setting": "[1]; [4]", "value": 50, "unit": "%"}]}, {"compound": "CC(C)(C)c1ccc(CSc2cnn(C(C)(C)C)c(=O)c2Cl)cc1", "note": "[Pyridaben, pyridaben]", "values": [{"measurement": "Average Control %", "setting": "[1]; [4]", "value": 0, "unit": "%"}]}, {"compound": "CN1COCN(Cc2cnc(Cl)s2)/C1=N\\[N+](=O)[O-]", "note": "[Thiamethoxam, thiamethoxam]", "values": [{"measurement": "Average Control %", "setting": "[2]; [5]", "value": 0, "unit": "%"}, {"measurement": "Average Control %", "setting": "[1]; [6]", "value": 0, "unit": "%"}]}, {"compound": "abamectin", "values": [{"measurement": "Average Control %", "setting": "[2]; [5]", "value": 0, "unit": "%"}, {"measurement": "Average Control %", "setting": "[1]; [6]", "value": 0, "unit": "%"}]}]}
